What was measured:
Format in all cases: cell-based
human bronchiols [1] = test: Leukotriene D4 induced contraction of human bronchiols, in vitro model (Biological Example 1); conditions: pre-treatment with compound 10 μM, Leukotriene D4 (10 nM) induced contraction, read-out: Remaining contraction (%)
Description: (§1) The usefulness of the compounds, as defined in the preceding embodiments, in treating, pretreating, revoking, mitigating, alleviating and/or preventing a condition of the respiratory apparatus characterized by bronchoconstriction, were evaluated in a complex and relevant in vitro model. The in vitro model was in accordance with the in vitro model disclosed in US 2006-0040254 A1 and by Skogvall, S., Berglund, M., Dalence-Guzman, M. F., Svensson, K., Jonsson, P., Persson, C. G. A and Sterner, O., in Pulmonary Pharmacology and Therapeutics, vol 20:3, 2007, p. 273-280. All references disclosed herein are hereby incorporated in their entirety by reference.
(§2) In short, lung tissue was obtained from patients undergoing lobectomia or pulmectomia due to lung carcinoma. From the bronchus of this tissue were rectangular oblong preparations obtained. The contraction induced by inflammatory mediators, such as Leukotriene D4, histamine, prostaglandin D2 or acetylcholine, in the presence and absence of the compound to be evaluated, were compared.
The remaining contraction, after pre-treatment with various compound examples at a concentration of 10 μM, of human bronchiols after Leukotriene D4 (10 nM) induced contraction according to the in vitro method described herein above are tabulated below.

human bronchiols [2] = test: Contraction of human bronchiols induced by acetylcholine, carbachol, histamine, methacholine or a mixture (Biological Example 2); conditions: compound 10 μM
Description: as §1, §2
(§3) The remaining contraction, after pre-treatment with various compound examples at a concentration of 10 μM, of human bronchiols or rat bronhi after the induction of contraction by treatment with the contractile agents acetylcholine (100 uM), carbachol (10 uM), histamine (100 uM), methacholine (100 uM) or a mixture of acetylcholine (100 uM), leukotriene D4 (LTD4) (0.01 uM) and histamine (100 uM), according to the in vitro method described herein above, are tabulated below: […]

rat bronhi = test: Contraction of rat bronchi induced by acetylcholine, carbachol or methacholine (Biological Example 2); conditions: compound 10 μM
Description: as §1, §2, §3

MCP-1 = test: Human PBMC in vitro model, MCP-1 production (Luminex-based assay); conditions: compound 10 μM or dexamethasone 1 μM, 24 h supernatant
Description: (§4) Cryopreserved PBMC's (SeraCare, # 72001) were thawed, washed with culture media (RPMI-1640 from Invitrogen, # 61870-036+10% heat inactivated fetal bovine serum from Invitrogen, # 10082-147+100 U/ml penicillin+[…] streptomycin) and tested for viability using Trypan blue (PBMC viability=96%). Cells were then resuspended to 1×10^6 cells/ml in culture media and 0.5 ml was plated into 24 well culture plates (5×10^5 cells/well) before incubation for 30 minutes at 37° C. with 5% CO2 prior to addition of a compound of the present invention (10 μM) or dexamethasone (1 μM). One hour thereafter, LPS (0.1 μg/ml, Salmonella abortus equi, Sigma, # L1887) was added and the cells were incubated for another 24 h before collection of the cell culture supernatants, which were assayed for the presence of MCP-1 and LTB4.
MCP-1 levels were quantified employing a Luminex-based assay according the manufacturer's instructions. Data was collected using a Luminex 100 (Luminex Corporation, Austin, Tex.). Standard curves were generated using a 5-parameter logistic curve fitting equation weighted by 1/y (StarStation V 2.0; Applied Cytometry Systems, Sacramento, Calif.). Each sample reading was interpolated from the appropriate standard curve. Calculated concentrations were multiplied by the appropriate dilution factor when necessary.
(§5) The inhibitory effect of compounds of the present invention, dexamethasone, and vehicle on production of MCP-1 and LTB4 in the PBMC model as described herein above, with (+LPS) or without (−LPS) LPS-induced mediator production, is tabulated below.

LTB4 = test: Human PBMC in vitro model, LTB4 production (ELISA); conditions: compound 10 μM or dexamethasone 1 μM, 24 h supernatant
Description: as §4
LTB4 levels were quantified by ELISA following the manufacturer's instructions. Absorbance readings were detected using a ThermoMax microplate reader (Molecular Devices). Standard curves were generated using a 4-parameter logistic curve fitting equation (SoftMax Pro 4.7.1; Molecular Devices). Each sample reading was interpolated from the appropriate standard curve. Duplicate interpolated sample values were averaged and standard deviations were calculated. Calculated concentrations were multiplied by the appropriate dilution factor.
as §5

[3] = Mixture of Acetylcholine (100 uM), LTD4 (0.01 uM) and histamine (100 uM)

Cc1nc(C(F)(F)F)ccc1/C=C/C(=O)N1CCc2c(Cl)c(O)c(O)c(Cl)c2C1 [Example 11, (E)-1-(5,8-dichloro-6,7-dihydroxy-3,4-dihydroisoquinolin-2(1H)-yl)-3-(2-methyl-6-(trifluoromethyl)pyridin-3-yl)prop-2-en-1-one]
activity at 10 µM (human bronchiols [1]): 9%
REMAINING CONTRACTION (%) (human bronchiols [2]; [3]): 25%

C/C(=C\C(=O)N1CCc2c(Cl)c(O)c(O)c(Cl)c2C1)c1ccc(C(F)(F)F)nc1 [Example 13]
activity at 10 µM (human bronchiols [1]): 7%
REMAINING CONTRACTION (%) (human bronchiols [2]; Acetylcholine (100 uM)): 7%
REMAINING CONTRACTION (%) (human bronchiols [2]; Histamine (100 uM)): 3%
REMAINING CONTRACTION (%) (human bronchiols [2]; [3]): 18%
REMAINING CONTRACTION (%) (rat bronhi; Acetylcholine (100 uM)): 52%
Mean MCP-1 (MCP-1; with LPS 0.1 μg/ml (+LPS)): 256.7 pg/mL
Mean MCP-1 (MCP-1; without LPS (−LPS)): 217.1 pg/mL
Mean LTB-4 (LTB4; with LPS 0.1 μg/ml (+LPS)): 9.8 pg/mL
Mean LTB-4 (LTB4; without LPS (−LPS)): 4.3 pg/mL

O=C(/C=C/c1ccccc1)N1CCc2c(Cl)c(O)c(O)c(Cl)c2C1 [Example 1, (E)-1-(5,8-dichloro-6,7-dihydroxy-3,4-dihydroisoquinolin-2(1H)-yl)-3-phenylprop-2-en-1-one]
activity at 10 µM (human bronchiols [1]): 41%

C/C(=C\C(=O)N1CCc2c(Cl)c(O)c(O)c(Cl)c2C1)c1cnc2ccccc2c1 [Example 5, (E)-1-(5,8-dichloro-6,7-dihydroxy-3,4-dihydroisoquinolin-2(1H)-yl)-3-(quinolin-3-yl)but-2-en-1-one]
activity at 10 µM (human bronchiols [1]): 31%

O=C(/C=C/c1cccnc1)N1CCc2c(Cl)c(O)c(O)c(Cl)c2C1 [Example 2, (E)-1-(5,8-dichloro-6,7-dihydroxy-3,4-dihydroisoquinolin-2(1H)-yl)-3-(pyridin-3-yl)prop-2-en-1-one]
activity at 10 µM (human bronchiols [1]): 44%

C/C(=C\C(=O)N1CCc2c(Cl)c(O)c(O)c(Cl)c2C1)c1ccc(F)cn1 [Example 8, (E)-1-(5,8-dichloro-6,7-dihydroxy-3,4-dihydroisoquinolin-2(1H)-yl)-3-(5-fluoropyridin-2-yl)but-2-en-1-one]
activity at 10 µM (human bronchiols [1]): 76%

O=C(/C=C/c1ccc(F)cn1)N1CCc2c(Cl)c(O)c(O)c(Cl)c2C1 [Example 3, (E)-1-(5,8-dichloro-6,7-dihydroxy-3,4-dihydroisoquinolin-2-(1H)-yl)-3-(5-fluoropyridin-2-yl)prop-2-en-1-one]
activity at 10 µM (human bronchiols [1]): 24%
REMAINING CONTRACTION (%) (human bronchiols [2]; [3]): 43%

C[C@@H]1C[C@H]2[C@@H]3CCC4=CC(=O)C=C[C@]4(C)[C@@]3(F)[C@@H](O)C[C@]2(C)[C@@]1(O)C(=O)CO [Dexamethasone, reference compound]
Mean MCP-1 (MCP-1; with LPS 0.1 μg/ml (+LPS)): 1425.6 pg/mL
Mean MCP-1 (MCP-1; without LPS (−LPS)): 0 pg/mL
Mean LTB-4 (LTB4; with LPS 0.1 μg/ml (+LPS)): 12.6 pg/mL
Mean LTB-4 (LTB4; without LPS (−LPS)): 2.7 pg/mL

O=C(/C=C\c1ccccc1O)N1CCc2c(Cl)c(O)c(O)c(Cl)c2C1 [Example 7, (Z)-1-(5,8-dichloro-6,7-dihyroxy-3,4-dihydroisoquinolin-2(1H)-yl)-3-(2-hydroxyphenyl)prop-2-en-1-one]
activity at 10 µM (human bronchiols [1]): 71%

O=C(/C=C/c1ccc(C(F)(F)F)nc1)N1CCc2c(Cl)c(O)c(O)c(Cl)c2C1 [Example 12, (E)-1-(5,8-dichloro-6,7-dihydroxy-3,4-dihydroisoquinolin-2(1H)-yl)-3-(6-(trifluoromethyl)pyridin-3-yl)prop-2-en-1-one]
activity at 10 µM (human bronchiols [1]): 6%
REMAINING CONTRACTION (%) (human bronchiols [2]; Acetylcholine (100 uM)): 4%
REMAINING CONTRACTION (%) (human bronchiols [2]; Carbachol (10 uM)): 10%
REMAINING CONTRACTION (%) (human bronchiols [2]; Histamine (100 uM)): 1%
REMAINING CONTRACTION (%) (human bronchiols [2]; Methacholine (100 uM)): 7%
REMAINING CONTRACTION (%) (human bronchiols [2]; [3]): 12%
REMAINING CONTRACTION (%) (rat bronhi; Acetylcholine (100 uM)): 40%
REMAINING CONTRACTION (%) (rat bronhi; Carbachol (10 uM)): 27%
REMAINING CONTRACTION (%) (rat bronhi; Methacholine (100 uM)): 49%
Mean MCP-1 (MCP-1; with LPS 0.1 μg/ml (+LPS)): 303.1 pg/mL
Mean MCP-1 (MCP-1; without LPS (−LPS)): 229.7 pg/mL
Mean LTB-4 (LTB4; with LPS 0.1 μg/ml (+LPS)): 9.9 pg/mL
Mean LTB-4 (LTB4; without LPS (−LPS)): 3.9 pg/mL

Cc1c(O)c(O)c(C)c2c1CCN(C(=O)/C=C/c1ccc(C(F)(F)F)nc1)C2 [Example 9, (E)-6,7-dihydroxy-5,8-dimethyl-1,2,3,4-tetrahydroisoquinoline 3-(6-(trifluoromethyl)pyridin-3-yl)acrylamide]
activity at 10 µM (human bronchiols [1]): 75%

— US8318768B2, “Bronchodilating alpha, beta-unsaturated isoquinoline amides” (Respiratorius AB, priority 2007, dated 2012)
